What was measured:
[1] = system: primary murine aortic smooth muscle cells; experiment: Murine smooth muscle cell migration (scratch wound, CML AGE); assay type: cell-based, C57BL/6 mice; details: 1 μM pre-treatment 1.5 hours, CML AGE 100 μg/ml, 7 hrs
Protocol: Effects of CB-1 to CB-14 on Murine Smooth Muscle Cell Migration. Primary murine aortic smooth muscles retrieved from wild type C57BL/6 mice were grown to 90% confluency in medium containing 10% fetal bovine serum. Cells were serum starved for 16 hrs during which time fetal bovine serum was replaced with 0.1% bovine serum albumin. Following this period of serum starvation, cells were pre-treated for 1.5 hours with the indicated Chembridge library hit denoted #1-14 at a concentration of 1 μM. At the end of that time, compounds were removed and cell monolayers were vertically scratched with a pipet tip to create a “wound” and then RAGE ligand carboxy methyl lysine human serum albumin (CML AGE), 100 μg/ml, was added for 7 hrs. Photographs of the monolayer were taken at time 0 (time of scratch/CML AGE) and at 7 hrs. The ingrowth of the cells was then noted and % area ingrowth was calculated comparing ingrowth at baseline to that at 7 hrs. N=triplicate experiments. * indicates p<0.05

[2] = system: delayed type hypersensitivity (DTH) mediated inflammation in mice; experiment: In vivo model of delayed type hypersensitivity (DTH), paw inflammation score; parameters: species or system CF-1 mice; details: 5 mg/kg intraperitoneal, four doses; for Inflammation Score Compound ± SEM: paw scored 16 hrs after mBSA, scale 1-5, n=5 mice/group; for reduction in inflammation score in the paw compared to vehicle: vs DMSO vehicle
Protocol: Effects of CB Compounds 1-14 on an in vivo model of delayed type hypersensitivity (DTH). Female CF-1 mice were purchased from the Jackson Laboratories (Bar Harbor Me.) and after a period of at least 3 days acclimation in the animal facility, mice were sensitized over the left inguinal lymph node with an emulsion (0.1 ml) containing methylated bovine serum albumin (mBSA, Sigma, 25 mg/ml), NaCl (0.9%), dextran 5-40×10^6 MW; 50 mg/ml (Sigma), and Freunds' incomplete adjuvant (50%). On day 19 and 20 after sensitization, mice received an intraperitoneal dose of one of CB compounds 1-14 at 5 mg/kg/body weight mouse for a total of four doses. Control animals received equal volumes of compound diluent, DMSO. Immediately following the final compound injection (4th dose), mBSA (0.4 mg/ml; 0.050 ml) was injected into the left plantar hind paw. The paw was scored 16 hrs later by 2 investigators naive to the experimental condition and according to the following criteria: 1=absence of any inflammation; 2=slight rubor and edema; 3=moderate rubor and edema with skin wrinkles; 4=severe rubor and edema without skin wrinkles and 5=severe rubor and edema with toe spreading. See also Hofmann et al. (1999, Cell 97:889-901), the entire content of which is incorporated herein in its entirety. In these experiments, n=5 mice/group.

RAGE tail = RAGE tail (Homo sapiens (Human), UniProt Q15109); experiment: RAGE tail fluorescence titration (Kd determination); details: binding to RAGE tail
Protocol: Binding affinities of small molecules for either CT-RAGE or FH1 are determined by performing fluorescence titrations to generate binding isotherms and standard SPR experiments.
A number of representative amino and amido compounds of this invention were or can be tested for their inhibitory activity.
(§1) Fluorescence quenching was used to determine binding.
A number of representative heterocylic compounds of this invention were or can be tested for their inhibitory activity.
as §1, §1

[3] = system: primary human aortic smooth muscle cells; experiment: Human smooth muscle cell migration (scratch wound, CML AGE); assay type: cell-based; details: 1 μM pre-treatment 1.5 hours, CML AGE 100 μg/ml, 7 hrs
Protocol: Effects of CB-1 to CB-14 on Human Smooth Muscle Cell Migration. Primary human aortic smooth muscles were purchased from Lonza and were grown to 90% confluency in medium containing 10% fetal bovine serum. Cells were serum starved for 16 hrs during which time fetal bovine serum was replaced with 0.1% bovine serum albumin. Following this period of serum starvation, cells were pre-treated for 1.5 hours with the indicated Chembridge library hit denoted #1-14 at a concentration of 1 μM. At the end of that time, compounds were removed and cell monolayers were vertically scratched with a pipet tip to create a “wound” and then RAGE ligand carboxy methyl lysine human serum albumin (CML AGE), 100 μg/ml, was added for 7 hrs. Photographs of the monolayer were taken at time 0 (time of scratch/CML AGE) and at 7 hrs. The ingrowth of the cells was then noted and % area ingrowth was calculated comparing ingrowth at baseline to that at 7 hrs. N=triplicate experiments. * indicates p<0.05 (FIG. 8)

[4] = molecular target: RAGE tail (ctRAGE) binding to mDial (Homo sapiens (Human), UniProt Q15109); experiment: Primary screen: binding of GFP RAGE tail to mDial at one concentration (10 uM); details: 10 μM compound
Protocol: Primary screening was a two-step process in which compounds were first tested in a high throughput assay at one concentration (10 uM). Compounds that reduced binding of RAGE tail (ctRAGE) by at least 50% were then selected and subjected to 4-point dose response (10 uM, 1 uM, 0.1 uM and 0.01 uM) (FIGS. 1, 4, and 5).
Step 1. Add 50 μl anti-mDial (1:160 dilution in 0.1M NaHCO3 pH 9.6)/well. Incubate overnight at 4° C.
Step 2. Use the plate washer to aspirate anti-mDial and wash plates 4× with PBS 100 μl per well per wash.
Step 3. Add 180 μl 3% BSA in 1×PBS. Incubate for 1.5 hrs at room temperature
Step 4. Use the plate washer to aspirate the blocking solution and wash 5× with PBS 300 μl per well.
Step 5. Add 50 μl of mDial containing lysate (85 μg) and incubate at RT for 3 hours.
Step 6. Aspirate the lysate and wash the plate 5× (100 μl) on the plate washer.
Step 7. Add 25 μl PBS to the wells.
Step 8. Add 0.5 μL compound per well.
Step 9. Add 24.5 μL GFP RAGE tail (125 nM) into each well for 2 hrs at room temperature.
Step 10. Aspirate and wash 5× with PBS (100 μL) on the plate washer.
Step 11. Add 100 ul PBS in each well.
Step 12. Detection: Read on fluorescence plate reader excitation 435 nm and 485 nm emission
Compounds that blocked the binding of RAGE tail to mDial by 50% or more were subjected to 4 point dose response: 10 μM, 1 μM, 0.1 μM and 0.01 μM.

Sequence of RAGE tail (Q15109 364-404): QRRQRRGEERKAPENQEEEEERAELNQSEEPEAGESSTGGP
Sequence of RAGE tail (ctRAGE) binding to mDial (Q15109 364-404): as above

| SMILES | Kd (RAGE tail) [nM] | inhibition at 10 µM [4] [%] | RAGE ligand CML AGE-mediated ingrowth (migration) [1] | Inflammation Score Compound ± SEM [2] | RAGE ligand CML AGE-mediated ingrowth (migration) [3] | reduction in inflammation score in the paw compared to vehicle [2] |
| --- | --- | --- | --- | --- | --- | --- |
| COc1cc(SC)ccc1C(=O)Nc1cccc(C)n1 [CB-1] | 4 ± 1 | – | no inhibitory effect | 3.4 ± 0.55/3.4 ± 0.55 | no inhibitory effect | – |
| C=CCOc1ccc2c(C(F)(F)F)cc(=O)oc2c1 [CB-2] | 6.5 ± 1 | – | prevent RAGE ligand CML AGE-mediated ingrowth (migration) | 3.2 ± 0.45/3.4 ± 0.55 | prevent RAGE ligand CML AGE-mediated ingrowth (migration) | – |
| Cc1nc2ccccc2n1CC(O)Cn1c2ccccc2c2ccccc21 (stereo not shown) [CB-3] | 18 ± 1 | – | prevent RAGE ligand CML AGE-mediated ingrowth (migration) | 2.2 ± 0.45/3.4 ± 0.55 | prevent RAGE ligand CML AGE-mediated ingrowth (migration) | statistically significant reduction in inflammation score |
| OC(Cn1ccc2ccccc21)Cn1cnc2ccccc21 (stereo not shown) [CB-4] | 2 ± 1 | – | prevent RAGE ligand CML AGE-mediated ingrowth (migration) | 3.0 ± 0.71/3.4 ± 0.55 | prevent RAGE ligand CML AGE-mediated ingrowth (migration) | – |
| Oc1cccc(Nc2nc(-c3ccc(F)cc3F)cs2)c1 [CB-5] | – | – | prevent RAGE ligand CML AGE-mediated ingrowth (migration) | 3.6 ± 0.55/3.4 ± 0.55 | prevent RAGE ligand CML AGE-mediated ingrowth (migration) | – |
| COc1cc(NC(C)=O)c(Cl)cc1C(=O)Nc1nccs1 [CB-6] | – | – | prevent RAGE ligand CML AGE-mediated ingrowth (migration) | 3.0 ± 0.71/3.6 ± 0.55 | prevent RAGE ligand CML AGE-mediated ingrowth (migration) | – |
| COc1ccccc1-c1cc(C(F)(F)F)nc(N2CCOCC2)n1 [CB-7] | 0.55 ± 0.05 | – | prevent RAGE ligand CML AGE-mediated ingrowth (migration) | 3.4 ± 0.55/3.6 ± 0.55 | prevent RAGE ligand CML AGE-mediated ingrowth (migration) | – |
| COC(=O)c1cc(OC)c(OC)cc1NC(=O)C1Oc2ccccc2OC1C (stereo not shown) [CB-8] | 2 ± 0.5 | – | prevent RAGE ligand CML AGE-mediated ingrowth (migration) | 3.4 ± 0.55/3.6 ± 0.55 | prevent RAGE ligand CML AGE-mediated ingrowth (migration) | – |
| Cc1ccc(S(=O)(=O)N(C)C(F)F)cc1 [CB-9] | 17300 ± 500 | – | prevent RAGE ligand CML AGE-mediated ingrowth (migration) | 3.6 ± 0.55/3.6 ± 0.55 | prevent RAGE ligand CML AGE-mediated ingrowth (migration) | – |
| CC1=NN(c2nc3ccccc3[nH]2)C(=O)C1CCC(C)C (stereo not shown) [CB-10] | – | – | prevent RAGE ligand CML AGE-mediated ingrowth (migration) | 3.2 ± 0.84/3.6 ± 0.55 | prevent RAGE ligand CML AGE-mediated ingrowth (migration) | – |
| Cc1cc2n(c1)CCn1c(C)ccc1-2 [CB-11] | 1.2 ± 0.5 | – | prevent RAGE ligand CML AGE-mediated ingrowth (migration) | 3.2 ± 0.45/3.4 ± 0.55 | prevent RAGE ligand CML AGE-mediated ingrowth (migration) | – |
| COC(=O)c1cc(-c2ccc(NC(C)=O)cc2)nc2ccccc12 [CB-12] | > 100000 | – | prevent RAGE ligand CML AGE-mediated ingrowth (migration) | 2.4 ± 0.55/3.4 ± 0.55 | prevent RAGE ligand CML AGE-mediated ingrowth (migration) | statistically significant reduction in inflammation score |
| Cc1c(Cl)cccc1NC(=O)CNC(=O)c1ccccc1F [CB-13] | 123 ± 1 | – | prevent RAGE ligand CML AGE-mediated ingrowth (migration) | 3.4 ± 0.55/3.4 ± 0.55 | prevent RAGE ligand CML AGE-mediated ingrowth (migration) | – |
| Oc1ccc(NCc2ccc(Br)cc2)cc1 [CB-14] | 1.4 ± 0.3 | – | prevent RAGE ligand CML AGE-mediated ingrowth (migration) | 3.2 ± 0.45/3.4 ± 0.55 | prevent RAGE ligand CML AGE-mediated ingrowth (migration) | – |

The next lines start with results.

| Kd (RAGE tail) [nM] | inhibition at 10 µM [4] [%] | SMILES | RAGE ligand CML AGE-mediated ingrowth (migration) [1] | Inflammation Score Compound ± SEM [2] | RAGE ligand CML AGE-mediated ingrowth (migration) [3] | reduction in inflammation score in the paw compared to vehicle [2] |
| --- | --- | --- | --- | --- | --- | --- |
| – | 31 | CC(=O)Nc1ccc(C(=O)Nc2nccs2)cc1 [CD-1] | – | – | – | – |
| 75 | – | OC(Cn1ccnc1)Cn1c2ccccc2c2ccccc21 (stereo not shown) [CD-4] | – | – | – | – |
| 4 | – | Cn1c(=O)n(CC(O)Cn2c3ccccc3c3ccccc32)c2ccccc21 (stereo not shown) [CD-6] | – | – | – | – |
| – | 31 | CN(Cc1ccccc1)CC(O)Cn1cnc2ccccc21 (stereo not shown) [CD-7] | – | – | – | – |
| – | 27 | N#Cc1ccc(OCC(O)Cn2cnc3ccccc32)cc1 (stereo not shown) [CD-8] | – | – | – | – |
| – | 11 | O=C(O)COc1ccc2c(C(F)(F)F)cc(=O)oc2c1 [CD-12] | – | – | – | – |
| – | 26 | OC(COCc1ccccc1)Cn1cnc2ccccc21 (stereo not shown) [CD-14] | – | – | – | – |
| – | 69 | OC(COc1cccc2ccccc12)Cn1cnc2ccccc21 (stereo not shown) [CD-16] | – | – | – | – |
| – | 45 | OC(CN(c1ccccc1)c1ccccc1)Cn1cnc2ccccc21 (stereo not shown) [CD-18] | – | – | – | – |
| – | 24 | O=C(O)c1ccccc1OCC(O)Cn1cnc2ccccc21 (stereo not shown) [CD-19] | – | – | – | – |
| – | 48 | CC1=NN(c2nc3ccccc3s2)C(=O)C1CCC(C)C (stereo not shown) [CD-20] | – | – | – | – |
| – | 18 | COc1ccccc1-c1cc(C(F)(F)F)nc(NC2CCCCC2)n1 [CD-21] | – | – | – | – |
| – | 37 | OC(COc1ccccc1)Cn1cnc2ccccc21 (stereo not shown) [CD-28] | – | – | – | – |
| 78 | – | Cc1nccn1CC(O)Cn1c2ccccc2c2ccccc21 (stereo not shown) [CD-29] | – | – | – | – |
| – | 42 | COc1ccccc1-c1cc(C(F)(F)F)nc(N2CCN(c3ccccc3OC)CC2)n1 [CD-42] | – | – | – | – |

Source: patent US10729695B2, “Amino, amido and heterocyclic compounds as modulators of RAGE activity and uses thereof” (The Research Foundation for the State University of New York, priority 2013, dated 2020)
